Values joined by “and” are separate entries in the source; they are usually repeats but may differ in a detail not shown here. Equal values may be shown once.

On the set-up of data set [1]: method as in PMID 11587497. To be noted: cited from earlier work.
Data set [2] is described as follows: CYP activity: testosterone metabolite formation in rat intestinal microsomes. It is filed as in vitro ADME. Particulars: for Maximal rate of testosterone metabolite formation: 100 μM testosterone, 1 mg/ml. How it is done:
The CYP enzyme activities were determined for the in‐house and commercial intestinal microsomes using the probe substrate testosterone. Testosterone metabolites and the respective rat cyp isoforms responsible for their formation are shown in Supplemental material Table 1 33. […] The reactions were initiated by the addition of testosterone. Samples were taken at 5, 15, 30 and 60 min. […] Following optimization of the bioanalytical methodology to improve reproducibility and sensitivity based on increasing the efficiency of protein precipitation 37, the samples were quenched 1:2 (sample: quench) in ice cold acetonitrile containing internal standard (1 μM 11‐β OH TEST) and stored overnight at −20°C. The following day, the plates were spun at 3000 rpm for 15 min, and 50 μl supernatant was diluted in 200 μl UPH2O. Samples were quantified using a Waters Acquity UPLC system with a PDA coupled to a G2 Q‐ToF MS (Waters, Milford, MA, USA), and a Acquity UPLC BEH C18 column, 130 Å, 1.7 μm, 2.1 mm × 100 mm and Acquity UPLC column with an in‐Line Filter Kit made up of the same phase (Waters). The sample (25 μl) was detected using an electrospray interface in positive mode, and source and desolvation temperatures, and desolvation and cone gas flows were 120°C and 400°C, and 800 l/h and 20 l/h, respectively. The cone voltage was 30 V. The elution times and LLOQ of testosterone and its hydroxy metabolites are shown in Supplemental material Table 2. The quantification of testosterone metabolites listed in Supplemental material Table 1 was made using standard curves (5–5000 pmol/ml) prepared from no cofactor added microsomes and prepared identically to the assay samples.

Details of data set [3]: method as in PMID 11587497. Particulars: Wistar rat intestinal microsomes prepared by elution, 30 cm intestine; cited from earlier work.
Data set [4] is described as follows: Substrate depletion in in-house rat intestinal microsome pools 1 and 2, combined CYP and UGT cofactors. To be noted: Han-Wistar, rat, in-house combined cofactors, 1 μM compound. How it is done: (§1) Microsomes prepared previously via the optimized method (preparation method 8) were combined to form pool 1 (n = 9 rats). A second set of three preparations was combined to form pool 2 (n = 9 rats). Intestinal microsomes were also prepared from intestinal tissue flash‐frozen in tubes on arrival in the laboratory and kept at −80°C until thawing on ice on the morning of preparation, (n = 3 occasions of n = 3 samples). In addition, for comparative purposes microsomes were also prepared from scraped intestinal tissues. Microsomes were prepared after cutting along the length of intestine and gently scraping the intestinal epithelial with a glass microscope slide (n = 1 occasion, n = 3 samples). Commercially available pooled intestinal microsomes were also used as a comparator to those produced in‐house. […] The microsomes were stored at −80°C prior to experiments.
The microsomes prepared from the final optimized preparation method (method 8) were measured for CYP content on the day of preparation prior to storage. These microsomes (n = 3 samples prepared on n = 3 separate occasions) were subsequently thawed on ice and pooled for pool 1. The pool 1 microsomes were then assayed for testosterone and 4‐NP metabolite formation. Additional intestinal microsomes were created using the identical methodology with the same number of rat intestinal samples (n = 3 samples prepared on n = 3 occasions) and assayed for testosterone and 4‐NP metabolite formation as well as for CYP content on the day of preparation before storage. The microsomes from this second set of preparations were then thawed and pooled to form pool 2.
(§2) Midazolam and 7‐hydroxycoumarin were both incubated at 1 mg/ml and 0.5 mg/ml. The microsomes were incubated on ice with alamethacin (50 μg/mg) for 15 min. […] The samples were quenched with ice cold acetonitrile (3:1 quench to sample) containing the internal standard (AZ1). The total incubation time was 40 min. Quenched samples were stored overnight at −20°C. The following day, the samples were diluted with 200 μl UPH2O, and spun at 3000 rpm (Sorvall legend RT centrifuge) for 15 min, and 200 μl of supernatant taken for analysis.

For data set [5] the following is noted: previous study, corrected for fu inc of this study; cited from earlier work.
Data set [6] in a line: Nonspecific protein binding in rat intestinal microsomes (96-well micro-equilibrium dialysis). To be noted: rat intestinal microsomes 1 mg/ml, compound 1 μM. On the procedure:
Nonspecific protein binding was determined in microsomes (1 mg/ml) using high throughput 96‐well micro‐equilibrium dialysis methodology (HTDialysis, LLC, Gales Ferry, CT, USA). These experiments used dialysis membrane strips with 12–14 kDa molecular mass cut‐off (HTDialysis). The microsomes were constituted in 0.1 M phosphate buffer (pH 7.4). The final concentrations of the test compounds was 1 μM. Microsomes containing the test compound were aliquoted into donor wells in triplicate, and buffer placed in the acceptor wells. The plate was incubated at 37°C and left to equilibrate on a plate shaker (450 rpm) for 4 h. Samples from both the acceptor and donor sides of the membrane were then transferred to 96‐well plates and quenched in acetonitrile containing internal standard (AZ1). The same sample preparation and LC–MS/MS methodology was used as described for the microsomal incubations. Compound MS transitions and retention times are reported in Supplemental material Table 3. Fuinc was calculated as the ratio of acceptor to donor both normalized for internal standard as described previously 41. Correction for protein binding for depletion experiments undertaken at 0.5 mg/ml were made using Equation (4).
(4) fumic,2=1/[P]mic,2/Pmic,1×1−fumic,1/fumic,1+1
where mic,1 denotes 1 mg/ml and mic,2 is 0.5 mg/ml.

A short description of data set [7]: In vitro-in vivo extrapolation of rat intestinal unbound intrinsic clearance (CL int,u,gut). The class given is in vitro ADME. To be noted: for CL int,u,gut, Combined in-house pools: mean of pool 1 and pool 2 CL int,u and scaling factors; for CL int,u,gut, Pool 1 Mean: pool 1, pool specific scaling factors. The source says:
The CL int,u values were scaled to give CL int,u,gut using scaling factors for the corresponding microsomal pool (Eq. (5)). The use of scalars from the mean of both pools was also investigated, and was also used for scaling of commercial microsome CL int,u data.
(5) CLint,u,G=CLuint⋅MPPGI⋅Intestine Segment Weight

Data set [8] is described as follows: Substrate depletion in commercial Han Wistar rat intestinal microsomes, combined or individual CYP and UGT cofactors. To be noted: for Main route of elimination (CYP vs UGT cofactors): commercial Han Wistar microsomes, individual cofactors; for microsomal CLint at 1 μM: male, Han Wistar, rat, pH 7.4, CL int,u, Commercial Han Wistar pool, 1 mg/ml, 1 μM compound. How it is done: as §1, §2

Where [9] appears, read: Pool 1, FT (1 freeze-thaw cycle).

For the compound `O=[N+]([O-])c1ccc(O)cc1` [4‐NP, 4‐nitrophenol], the “4-NP glucuronidation, previously reported” value in data set [1] was 7 ± 0.81 nmol/min/mg.

Turning to `C[C@]12CCC(=O)C=C1CC[C@@H]1[C@@H]2CC[C@]2(C)C(=O)CC[C@@H]12` [Androstenedione], the “Maximal rate of testosterone metabolite formation” value in data set [2] (Commercial HW, FT) is listed as 314.5 ± 55.3 pmol/min/mg; in data set [2] (Commercial SD, FT), 371.6 ± 7.2 pmol/min/mg; in data set [2] (setting [9]), 560.7 ± 6.6 pmol/min/mg; in data set [2] (Pool 2, FT), 548.7 ± 188.7 pmol/min/mg; in data set [2] (Pool 2, Fresh), 429.9 ± 30.9 pmol/min/mg; in data set [2] (Scraping, FT), 457.0 ± 60.4 pmol/min/mg.

Regarding `C[C@]12CC[C@H]3[C@@H](C[C@@H](O)C4=CC(=O)CC[C@@]43C)[C@@H]1CC[C@@H]2O` [6β‐OH TEST], in data set [3], the “6β-OH TEST formation, previously reported” value is listed as 289 ± 5 pmol/min/mg. The “Maximal rate of testosterone metabolite formation” value was 190 ± 53.5 pmol/min/mg in data set [2] (Commercial HW, FT); 167.2 ± 43.7 pmol/min/mg in data set [2] (Commercial SD, FT); 85.3 ± 32.5 pmol/min/mg in data set [2] (setting [9]); 187.5 pmol/min/mg and 187.5 ± 77.8 pmol/min/mg in data set [2] (Pool 2, FT); 113.3 pmol/min/mg and 113.3 ± 30.9 pmol/min/mg in data set [2] (Pool 2, Fresh); 66.1 pmol/min/mg and 66.1 ± 4.8 pmol/min/mg in data set [2] (Scraping, FT). Besides, the “Fold higher mean metabolite formation in pool 2 (vs pool 1)” value in data set [2] is 2.2 fold.

Broadly, the microsomal CLint is the rate of metabolic loss divided by the concentration. With `Cc1ncc2n1-c1ccc(Cl)cc1C(c1ccccc1F)=NC2` [Midazolam], the intrinsic metabolic clearance (microsomal CLint) at 1 μM in data set [4] (microsomes, pH 7.4, CL int,u, Pool 1, pool 1, 1 mg/ml, CYP and UGT cofactors) worked out at 22 µL/min/mg; in data set [4] (microsomes, pH 7.4, CL int,u, Pool 2, pool 2, cell marked with footnotes a and b (1 mg/ml and 0.5 mg/ml)), 18.2 µL/min/mg; in data set [8] (microsomes, CYP cofactors, CYP cofactors only) it was 18.2 µL/min/mg; in data set [8] (microsomes, Combined cofactors, combined CYP and UGT cofactors) it was 12.3 µL/min/mg; in data set [8] (microsomes, UGT cofactors, UGT cofactors only) it was 2.8 µL/min/mg. The “CL int,u in commercially available Sprague-Dawley microsomes” value in data set [5] is 8.3 µL/min/mg. This compound came in with a fuinc in data set [6] of 0.72. For the same compound, the “CL int,u,gut, Combined in-house pools” value in data set [7] was 6.12 L/h. For the same compound, the “CL int,u,gut, Pool 1 Mean” value in data set [7] (threshold 0.01 l/h) was 4.13 L/h. In addition, in data set [7] (pool 2, pool specific scaling factors, threshold 0.01 l/h), the “CL int,u,gut, Pool 2 Mean” value is 7.36 L/h. Moreover, in data set [8], the “Main route of elimination (CYP vs UGT cofactors)” value is recorded as “CYP mediated metabolism”.

On to `C[C@]12CC[C@H]3[C@@H](CCC4=CC(=O)CC[C@@]43C)[C@@H]1C[C@@H](O)[C@@H]2O` [16α‐OH TEST], for which the “Fold higher mean metabolite formation in pool 2 (vs pool 1)” value in data set [2] was 2.5 fold.

`CN(C)CCC=C1c2ccccc2CCc2ccccc21` [Amitriptyline]: the intrinsic metabolic clearance (microsomal CLint) at 1 μM in data set [4] (rat intestinal microsomes, in-house pool 1, pH 7.4, CL int,u, Pool 1, pool 1, 1 mg/ml, CYP and UGT cofactors) turned out to be 24.3 µL/min/mg; in data set [4] (rat intestinal microsomes, in-house pool 2, pH 7.4, CL int,u, Pool 2, pool 2, 1 mg/ml, CYP and UGT cofactors), 19.9 µL/min/mg; in data set [8] (CYP cofactors, CYP cofactors only) it was 5.3 µL/min/mg; in data set [8] (Combined cofactors, combined CYP and UGT cofactors), 23.8 µL/min/mg; in data set [8] (UGT cofactors, UGT cofactors only), 3 µL/min/mg. In addition, the fuinc in data set [6] is on record as 0.20. Also, in data set [7], the “CL int,u,gut, Combined in-house pools” value was 0.01 L/h. Further, in data set [7] (threshold 0.01 l/h), the “CL int,u,gut, Pool 1 Mean” value is 0.01 L/h. The “Main route of elimination (CYP vs UGT cofactors)” value in data set [8] was “comparable”. In addition, the “Agreement of additive individual cofactor CL int,u with combined cofactor CL int,u” value in data set [8] (commercial microsomes, eight compounds) is reported as “outside 2‐fold range”.

The values are drawn from PMC5413848, “Optimization of intestinal microsomal preparation in the rat: A systematic approach to assess the influence of various methodologies on metabolic activity and scaling factors” (Biopharmaceutics & Drug Disposition, 2017).
